From patent publication US4083953A, “Pharmaceutical composition containing 5:6-benzo-alpha-pyrone derivatives and method of use thereof” (Carlo Erba, S.p.A., priority 1973, dated 1978)
Read-outs that look alike come from different tables or passages of the source.

How the values were obtained:
Type in all cases: in vivo
stress-induced ulcers = assay: inhibition of stress-induced ulcers in rats (restraint in a water bath at 25° for 40 minutes); conditions: 50 mg/kg i.v.
[1] = system: passive cutaneous anaphylaxis (PCA); assay: passive cutaneous anaphylaxis (PCA) test in rats, oral; conditions: Rattus norvegicus, 50 mg/kg p.o., read-out: % Inhibition In Comparison With Controls
Description: They can be therefore used in prevention and treatment of bronchial asthma, allergic rhinitis, hay fever, urticaria and dermatosis.

[2] = system: airway resistance and pulmonary compliance; assay: airway resistance and pulmonary compliance in rats (technique of Palecek et al.); conditions: dosage as low as 3 mg/kg i.v.
Description: In addition to anti-allergic activity, the compounds of this invention are effective in decreasing the airway resistance and in increasing pulmonary compliance, and can be therefore used for the treatment of respiratory insufficiency, such as, for example, acute pulmonary insufficiency, as shown by the results obtained in rats using the technique described by Palecek F., Palecekova M., and Aviado D. M. (Arch. Environ. Health, 1967, 15:332-342).

[3] = system: bronchoconstrictive effect of compound 48/80 (histamine releasing drug); assay: antagonism of the bronchoconstrictive effect of compound 48/80 in rats; conditions: 3 mg/kg i.v.
[4] = system: bronchoconstrictive effect of 5-HT; assay: antagonism of the bronchoconstrictive effect of 5-HT in rats; conditions: 3 mg/kg i.v.

SMILES	inhibition of the stress-induced ulcers (stress-induced ulcers)	inhibition in vivo at 50 mg/kg ([1]; 0.25 h, 15 min. pretreatment)	inhibition in vivo at 50 mg/kg ([1]; 0.5 h, 30 min. pretreatment)	inhibition in vivo at 50 mg/kg ([1]; 1 h, 60 min. pretreatment)	inhibition in vivo at 50 mg/kg ([1]; 2 h, 120 min. pretreatment)	effect on airway resistance [2]	effect on pulmonary compliance [2]	antagonizing the bronchoconstrictive effect of compound 48/80 [3]	antagonizing the bronchoconstrictive effect of 5-HT [4]
CC(C)Oc1ccccc1-c1cc(=O)c2cc(C(=O)[O-])ccc2o1.[Na+] [6-carboxy-2'-isopropoxy-flavone sodium salt]	45%								
CC(C)Oc1ccccc1-c1cc(=O)c2cc(C(=O)O)ccc2o1 [6-carboxy-2'-isopropoxy-flavone]		82.9%	39.5%	27.6%	24.4%	lower the airway resistance	increase pulmonary compliance	50%	50%
O=C(O)c1ccc2oc(-c3cnccn3)cc(=O)c2c1 [6-carboxy-2-(2'-pyrazinyl)-chromone]		87%	47.3%	31.9%	26.3%				
O=C(O)c1ccc2oc(C=Cc3ccccc3)cc(=O)c2c1 [6-carboxy-2-(β-phenyl-vinyl)-chromone]		69.9%	45.8%	19.6%	16.6%				
O=C(O)c1ccc2oc(-c3cccc(Cl)c3)cc(=O)c2c1 [6-carboxy-3'-chloro-flavone]		31%	22.3%	5.9%	2.1%				
O=C(O)c1ccc2oc(-c3ccc(O)cc3)cc(=O)c2c1 [6-carboxy-4'-hydroxy-flavone]		9.2%	4%	3.7%	3.9%				
O=C(O)c1ccc2oc(-c3ccccc3)cc(=O)c2c1 [6-carboxy-flavone]		32.1%	23.5%	6.8%	3.4%				
O=C(O)c1ccc2oc3ccc(OCCO)cc3c(=O)c2c1 [AH 7725, 2-carboxy-7-hydroxyethoxy-xanthone]		42.6%	14.4%	13.3%	3.8%				
O=C(O)c1cc(=O)c2c(OCC(O)COc3cccc4oc(C(=O)O)cc(=O)c34)cccc2o1 [DSCG, disodium cromoglycate]		6%	5.5%	3.2%	2.5%				
